According to patent US9315475B2 (MERCK SHARP & DOHME CORP., priority 2011, dated 2016):

Columns and labels:
[1] = target: T1, wildtype HIV-1 protease (Human immunodeficiency virus type 1 group M subtype B, UniProt P04585); test: Assay for inhibition of microbial expressed HIV protease (Pepcleav); assay type: biochemical; conditions: wild type HIV-1 protease expressed in E. coli, peptide substrate, pH 5.5; mean of at least two independent experiments; read-out: Pepcleav
T1 construct: the wildtype HIV-1 protease (which was expressed in Escherichia coli); made in house; host or cells: Escherichia coli
Method in brief: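 Cleavage of 400 μM peptide substrate Val-Ser-Gln-Asn-(βnaphthyl)Ala-Pro-Ile-Val by 20 pM wild-type enzyme (E. coli-expressed) ran 1 h at 30 °C after 30 min inhibitor preincubation, pH 5.5 acetate buffer. Inhibition derived from product peak area by C18 LC with multiple-reaction-monitoring MS after formic acid quench.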

[2] = test system: HIV-1 (H9IIIB strain); test: Antiviral acute infection assay in cell culture (Spread); assay type: cell-based; conditions: HIV-1 H9IIIB infection of MT-4 human T-lymphoid cells in 10% FBS, mean of at least two independent experiments
Description: Antiviral Assays in Cell Culture (“Spread”)
Acute Infection Assay (“Spread”) data were generated using HIV-1 (H9IIIB strain) infection of MT-4 human T-lymphoid cells in 10% FBS, and according to the methods disclosed by J. P. Vacca et al, “L-735,524: An orally bioavailable human immunodeficiency virus type 1 protease inhibitor,” Proc. Natl. Acad. Sci. USA, Vol. 91, pp. 4096-4100 (April 1994).

[3] = Human immunodeficiency virus 1, T-lymphoid

| SMILES | IC50 [1] | EC50 [2] | EC50 [2, 3] |
| --- | --- | --- | --- |
| N[C@H](C(=O)Nc1c(Cl)cccc1OC[C@@H]1CN[C@H](COC(=O)NCC(F)(F)F)CO1)C(c1ccc(F)cc1)c1ccc(F)cc1 [Example 261, N-(2-chloro-6-{[(2S,5S)-5-({[(2,2,2-trifluoroethyl)carbamoyl]oxy}methyl)morpholin-2-yl]methoxy}phenyl)-4-fluoro-β-(4-fluorophenyl)-L-phenylalaninamide] | 4.3 nM | 170 nM | – |
| N[C@H](C(=O)Nc1cccc(F)c1CC[C@@H]1CN[C@H](COC(=O)NCC(F)(F)F)CO1)C(c1cccc(F)c1)c1cccc(F)c1 [Example 262, 3-fluoro-β-(3-fluorophenyl)-N-(3-fluoro-2-{2-[(2R,5S)-5-({[(2,2,2-trifluoroethyl)carbamoyl]oxy}methyl)morpholin-2-yl]ethyl}phenyl)-L-phenylalaninamide] | 4 nM | – | 15 nM |
| N[C@H](C(=O)Nc1cccc(F)c1CC[C@@H]1CN[C@H](COC(=O)NCC(F)(F)F)CO1)[C@@H](c1ccc(F)cc1)c1cccc(OC(F)(F)F)c1 [Example 263, (βS)-4-fluoro-N-(3-fluoro-2-{2-[(2R,5S)-5-({[(2,2,2-trifluoroethyl)carbamoyl]oxy}methyl)morpholin-2-yl]ethyl}phenyl)-β-[3-(trifluoromethoxy)phenyl]-L-phenylalaninamide] | 3.7 nM | – | 48 nM |
| N[C@H](C(=O)Nc1cncc(F)c1CC[C@@H]1CN[C@H](COC(=O)NCC(F)(F)F)CO1)[C@H](c1ccc(F)cc1)c1ccc(C(F)(F)F)cc1 [Example 264, (βS)-β-(4-fluorophenyl)-N-(5-fluoro-4-{2-[(2R,5S)-5-({[(2,2,2-trifluoroethyl)carbamoyl]oxy}methyl)morpholin-2-yl]ethyl}pyridin-3-yl)-4-(trifluoromethyl)-L-phenylalaninamide] | 3.6 nM | – | 77 nM |
| N[C@H](C(=O)Nc1cncc(F)c1CC[C@@H]1CN[C@H](COC(=O)NCC(F)(F)F)CO1)[C@@H](c1ccc(F)cc1)c1ccc(F)c(F)c1 [Example 265, (βS)-3,4-difluoro-β-(4-fluorophenyl)-N-(5-fluoro-4-{2-[(2R,5S)-5-({[(2,2,2-trifluoroethyl)carbamoyl]oxy}methyl)morpholin-2-yl]ethyl}pyridin-3-yl)-L-phenylalaninamide] | 3.1 nM | – | 36 nM |
| N[C@H](C(=O)Nc1cncc(F)c1CC[C@@H]1CN[C@H](COC(=O)NCC(F)(F)F)CO1)[C@H](c1ccc(F)cc1)c1cccc(Cl)c1 [Example 266, (βR)-3-chloro-β-(4-fluorophenyl)-N-(5-fluoro-4-{2-[(2R,5S)-5-({[(2,2,2-trifluoroethyl)carbamoyl]oxy}methyl)morpholin-2-yl]ethyl}pyridin-3-yl)-L-phenylalaninamide] | 3.1 nM | – | 50 nM |
| N[C@H](C(=O)Nc1cncc(F)c1CC[C@@H]1CN[C@H](COC(=O)NCC(F)(F)F)CO1)[C@H](c1ccc(F)cc1)c1ccc(Cl)cc1 [Example 267, (βR)-β-(4-chlorophenyl)-4-fluoro-N-(5-fluoro-4-{2-[(2R,5S)-5-({[(2,2,2-trifluoroethyl)carbamoyl]oxy}methyl)morpholin-2-yl]ethyl}pyridin-3-yl)-L-phenylalaninamide] | 3.1 nM | – | 51 nM |
| N[C@H](C(=O)Nc1cncc(F)c1CC[C@@H]1CN[C@H](COC(=O)NCC(F)(F)F)CO1)[C@@H](c1ccc(F)cc1)c1cc(F)ccc1F [Example 268, (βS)-2,5-difluoro-β-(4-fluorophenyl)-N-(5-fluoro-4-{2-[(2R,5S)-5-({[(2,2,2-trifluoroethyl)carbamoyl]oxy}methyl)morpholin-2-yl]ethyl}pyridin-3-yl)-L-phenylalaninamide] | 2.8 nM | – | 44 nM |
| N[C@H](C(=O)Nc1cccc(F)c1CC[C@@H]1CN[C@H](COC(=O)NCC(F)(F)F)CO1)[C@H](c1ccccc1)c1ccc(F)c(F)c1 [Example 269, (βR)-β-(3,4-difluorophenyl)-N-(3-fluoro-2-{2-[(2R,5S)-5-({[(2,2,2-trifluoroethyl)carbamoyl]oxy}methyl)morpholin-2-yl]ethyl}phenyl)-L-phenylalaninamide] | 2.7 nM | – | 25 nM |
| N[C@H](C(=O)Nc1cccc(F)c1CC[C@@H]1CN[C@H](COC(=O)NCC(F)(F)F)CO1)[C@H](c1ccc(F)cc1)c1ccc(F)c(F)c1 [Example 270, (βR)-β-(3,4-difluorophenyl)-4-fluoro-N-(3-fluoro-2-{2-[(2R,5S)-5-({[(2,2,2-trifluoroethyl)carbamoyl]oxy}methyl)morpholin-2-yl]ethyl}phenyl)-L-phenylalaninamide] | 2.1 nM | – | 22 nM |
| N[C@H](C(=O)Nc1cncc(F)c1CC[C@@H]1CN[C@H](C(=O)Nc2ccccc2O)CO1)C(c1ccc(F)cc1)c1ccc(F)cc1 [Example 271, 4-fluoro-N-[5-fluoro-4-(2-{(2R,5S)-5-[(2-hydroxyphenyl)carbamoyl]morpholin-2-yl}ethyl)pyridin-3-yl]-β-(4-fluorophenyl)-L-phenylalaninamide] | 2 nM | – | 810 nM |
| N[C@H](C(=O)Nc1cncc(F)c1CC[C@@H]1CN[C@H](COC(=O)NCC(F)(F)F)CO1)[C@@H](c1ccc(F)cc1)c1cccc(C(F)(F)F)c1 [Example 272, (βS)-4-fluoro-N-(5-fluoro-4-{2-[(2R,5S)-5-({[(2,2,2-trifluoroethyl)carbamoyl]oxy}methyl)morpholin-2-yl]ethyl}pyridin-3-yl)-β-[3-(trifluoromethyl)phenyl]-L-phenylalaninamide] | 2 nM | – | 32 nM |
| N[C@H](C(=O)Nc1cccc(F)c1CC[C@@H]1CN[C@H](COC(=O)NCC(F)(F)F)CO1)[C@H](c1ccc(F)cc1)c1ccc(Cl)cc1 [Example 273, (βR)-β-(4-chlorophenyl)-4-fluoro-N-(3-fluoro-2-{2-[(2R,5S)-5-({[(2,2,2-trifluoroethyl)carbamoyl]oxy}methyl)morpholin-2-yl]ethyl}phenyl)-L-phenylalaninamide] | 1.4 nM | – | 20 nM |
| N[C@H](C(=O)Nc1cccc(F)c1CC[C@@H]1CN[C@H](COC(=O)NCC(F)(F)F)CO1)[C@@H](c1ccc(Cl)cc1)c1cccc(F)c1 [Example 274, (βS)-β-(4-chlorophenyl)-3-fluoro-N-(3-fluoro-2-{2-[(2R,5S)-5-({[(2,2,2-trifluoroethyl)carbamoyl]oxy}methyl)morpholin-2-yl]ethyl}phenyl)-L-phenylalaninamide] | 1.3 nM | – | 11 nM |
| N[C@H](C(=O)Nc1cncc(F)c1CC[C@@H]1CN[C@H](COC(=O)NCC(F)(F)F)CO1)[C@H](c1ccc(F)cc1)c1ccc(Br)cc1 [Example 275, (βR)-4-bromo-β-(4-fluorophenyl)-N-(5-fluoro-4-{2-[(2R,5S)-5-({[(2,2,2-trifluoroethyl)carbamoyl]oxy}methyl)morpholin-2-yl]ethyl}pyridin-3-yl)-L-phenylalaninamide] | 0.4 nM | – | 25 nM |
| N[C@H](C(=O)Nc1cncc(F)c1CC[C@@H]1CN[C@H](COC(=O)NC(CC(F)(F)F)c2ccc(F)cc2)CO1)C(c1ccc(F)cc1)c1ccc(F)cc1 (stereo partly drawn) [Example 276, 4-fluoro-β-(4-fluorophenyl)-N-[5-fluoro-4-(2-{(2R,5S)-5-[({[3,3,3-trifluoro-1-(4-fluorophenyl)propyl]carbamoyl}oxy)methyl]morpholin-2-yl}ethyl)pyridin-3-yl]-L-phenylalaninamide] | 0.2 nM | – | 28 nM |
